We go through nine compounds from patent US20250019370A1, “L-LYSINE SALT OF 4-CHLORO-5-[4-(2,6-DICHLOROPHENYL)SULFONYLPIPERAZIN-1-YL]-1-BENZOFURAN-2-CARBOXYLIC ACID AND VARIOUS FORMS THEREOF” (ENYO PHARMA, priority 2023, published 2025).

Series [1] in a line: Solubility kinetics in FaSSIF medium. The class given is physicochemical. The settings on record: after 24 h; for Soluble fraction: 37° C.; for pH: pH given with the soluble fraction. As for the experimental part: The solubility kinetics of the salt forms as well as the native EYP001 free acid form were determined in FaSSIF and FeSSIF media, and in a pH 4.5 acetate buffer as detailed below: The samples were prepared by adding an excess of each tested bulk (salt or native EYP001) to a given volume of test medium. The suspension was stirred by orbital stirring over 1 hour (in both pH 4.5 acetate buffer and FeSSIF medium) or 24 hours ([…] medium) at 37° C., protected from light. In FaSSIF medium, the soluble concentration was assessed after 24 hours of stirring. […] At each time point, the “supernatant” was isolated and diluted in a solvent mixture allowing its injection into the chromatographic system. The concentration in solution in the test medium was determined by HPLC with external standardization.

The nature of series [2]: Solubility kinetics in pH 4.5 acetate buffer. The format is physicochemical. The settings on record: 37 ° C. On the procedure: The solubility kinetics of the salt forms as well as the native EYP001 free acid form were determined in FaSSIF and FeSSIF media, and in a pH 4.5 acetate buffer as detailed below:
The samples were prepared by adding an excess of each tested bulk (salt or native EYP001) to a given volume of test medium. The suspension was stirred by orbital stirring over 1 hour (in both pH 4.5 acetate buffer and FeSSIF medium) or 24 hours (inFaSSIF medium) at 37° C., protected from light.
In pH 4.5 acetate buffer, the soluble concentration was assessed after 0.5 hour and 1 hour of stirring.
At each time point, the “supernatant” was isolated and diluted in a solvent mixture allowing its injection into the chromatographic system. The concentration in solution in the test medium was determined by HPLC with external standardization.

A short description of series [3]: Thermogravimetric analysis (TGA), mass losses upon heating. The class given is physicochemical. As for the experimental part:
Thermogravimetric analysis was performed on a TA Instruments TGA Hi-Res 2950 apparatus equipped with an evolved gas analysis furnace. A sample was placed in an opened aluminium basket and analysed according to the following conditions: […]

The nature of series [4]: Solubility kinetics in FeSSIF medium. The format is physicochemical. The settings on record: for Soluble fraction: 37 ° C. As for the experimental part: The solubility kinetics of the salt forms as well as the native EYP001 free acid form were determined in FaSSIF and FeSSIF media, and in a pH 4.5 acetate buffer as detailed below: The samples were prepared by adding an excess of each tested bulk (salt or native EYP001) to a given volume of test medium. […] In FaSSIF medium, the soluble concentration was assessed after 24 hours of stirring. […] At each time point, the “supernatant” was isolated and diluted in a solvent mixture allowing its injection into the chromatographic system. The concentration in solution in the test medium was determined by HPLC with external standardization.

Series [5] can be described thus: Pharmacokinetic study Experiment #4, oral administration in rats. The format is in vivo, rat. The settings on record: 10 mg EqEYP001/Kg. As for the experimental part:
In a fourth study (Experiment #4), EYP001, EYP001 L-lysine salt amorphous Form and EYP001 L-lysine salt Form VI in aqueous formulations (0.5% CMC, 0.25% Tween 80, water) were orally administrated at a dose of 10 mg EqEYP001/Kg in 8 male rats for each compound (4 rats on day 1 and 4 rats on day 2 for each compound). Blood samples were taken at 0.25 h, 0.5 h, 1 h, 2 h, 4 h, 6 h, 8 h, 12 h, and 24 h after oral administration.

The nature of series [6]: Dynamic Vapor Sorption (DVS) analysis (gas water sorption). The class given is physicochemical. The settings on record: for water uptake upon sorption (DVS): 25° C./95% RH; for hygroscopicity (DVS): hygroscopic above 2% mass gain at 25° C./60% RH. As for the experimental part:
The dynamic vapor sorption (DVS) analysis (gas water sorption) was performed on a DVS-Intrinsic incubator (SMS Ltd), equipped with DVS-Intrinsic Control Software 1.0. The sample, placed in an aluminium basket holder, was submitted to a full-cycle analysis (sorption followed by desorption cycle) under the following conditions:
The sample was first pre-dried under a stream of dry air until a stabilized sample mass was observed. Then, the relative humidity was increased by 5% increments. At each step, the sample mass was allowed to increase until equilibrium is reached (according to a given dm/dt target), and then a new relative humidity rise occurred. Relative humidity was ramped up to 95%. After equilibration at this point, desorption began in a similar stepwise manner, with sample mass decrease again allowed to stabilize after each incremental humidity decrease.
With both segments of the above-described method, the sample mass recording allowed describing of the whole vapor water sorption/desorption behaviour versus relative humidity.

Series [7] in a line: Pharmacokinetic study Experiment #1, oral administration in rats. The format is in vivo, rat. The settings on record: 50 mg EqEYP001/Kg, male rats, aqueous formulation. On the procedure:
In a first study (Experiment #1), EYP001, EYP001 Meglumine salt, and EYP001 L-lysine salt Form I in aqueous formulations (0.5% CMC, 0.25% Tween 80, water) were orally administrated at a dose of 50 mg EqEYP001/Kg in 3 male rats for each compound. Blood samples were taken at 0.25 h, 0.5 h, 1 h, 2 h, 4 h, 6 h, 8 h, 12 h, and 24 h after oral administration.

The mark [8] stands for this setting: after 0.5 h, listed as EYP001 L-Lysine salt (Form VI).
The mark [9] stands for this setting: after 1 h, listed as EYP001 L-Lysine salt (Form VI).
Where [10] appears, read: male rats, aqueous formulation, listed as EYP001 L-lysine salt (Form VI).
[11] abbreviates: male rats, versus EYP001 free acid, listed as EYP001 L-lysine salt (Form VI).
Where [12] appears, read: listed as EYP001 L-lysine salt (form VI).

On to `NC1CCCCC1.O=C(O)c1cc2c(Cl)c(N3CCN(S(=O)(=O)c4c(Cl)cccc4Cl)CC3)ccc2o1`, for which, in series [1], the Soluble fraction is 0.19 mg/mL of EYP001 and the pH was determined as 6.5.
Consider `O=C(O)c1cc2c(Cl)c(N3CCN(S(=O)(=O)c4c(Cl)cccc4Cl)CC3)ccc2o1.c1ccc(CCNCc2ccccc2)cc1` [EYP001 Benethamine salt (Polymorph I)], for which, in series [1], the Soluble fraction is on record as 0.01 mg/mL of EYP001 and the pH is 6.6.
For `O=C(O)c1cc2c(Cl)c(N3CCN(S(=O)(=O)c4c(Cl)cccc4Cl)CC3)ccc2o1.c1ccc(CCNCc2ccccc2)cc1` [EYP001 Benethamine salt (Polymorph II)], in series [1], the Soluble fraction is listed as 0.01 mg/mL of EYP001 and the pH is 6.5.
Turning to `O=C(O)c1cc2c(Cl)c(N3CCN(S(=O)(=O)c4c(Cl)cccc4Cl)CC3)ccc2o1.c1ccc(CCNCc2ccccc2)cc1` [EYP001 Benethamine salt (polymorph I)], the Soluble fraction in series [2] (after 0.5 h) and in series [2] (after 1 h) was 0.001 mg/mL of EYP001 each time.
In the case of `O=C(O)c1cc2c(Cl)c(N3CCN(S(=O)(=O)c4c(Cl)cccc4Cl)CC3)ccc2o1.c1ccc(CCNCc2ccccc2)cc1` [EYP001 Benethamine salt (polymorph II)], the Soluble fraction in series [2] (after 0.5 h) is given as 0.0002 mg/mL of EYP001; in series [2] (after 1 h) it was 0.0003 mg/mL of EYP001.
Take `NCCCC[C@H](N)C(=O)O.O=C(O)c1cc2c(Cl)c(N3CCN(S(=O)(=O)c4c(Cl)cccc4Cl)CC3)ccc2o1` [EYP001 L-lysine salt Form VI, L-lysine salt of 4-chloro-5-[4-(2,6-dichlorophenyl)sulfonylpiperazin-1-yl]-1-benzofuran-2-carboxylic acid]: the “Start (° C.)” value worked out at 223 °C in series [3] (TGA step 1) and 275 °C in series [3] (TGA step 2). Further, the “Stop (° C.)” value in series [3] (TGA step 1) turned out to be 275 °C; in series [3] (TGA step 2), 480 °C. The “TEndset (° C.)” value was determined as 262 °C in series [3] (TGA step 1) and 344 °C in series [3] (TGA step 2). The “TOnset (° C.)” value came out at 251 °C in series [3] (TGA step 1) and 313 °C in series [3] (TGA step 2). Also, the “Δm (%) mass loss upon heating” value in series [3] (TGA step 1) is listed as 11.2%; in series [3] (TGA step 2), 58.4%. Moreover, in series [3] (heater ramp 10 ° C./min, nitrogen, listed as EYP001 L-lysine salt (Form VI)), the “onset temperature of thermal decomposition (TGA)” value worked out at 251 °C. Besides, the “mass loss before the beginning of thermal decomposition (TGA)” value in series [3] (upon heating, listed as EYP001 L-lysine salt (Form VI)) was “no mass loss”. The Soluble fraction was 0.50 mg/mL of EYP001 in series [4] (setting [8]); 0.75 mg/mL of EYP001 in series [4] (setting [9]); 0.90 mg/mL of EYP001 in series [4] (after 2 h, listed as EYP001 L-Lysine salt (Form VI)); 1.18 mg/mL of EYP001 in series [4] (after 24 h, listed as EYP001 L-Lysine salt (Form VI)); 0.035 mg/mL of EYP001 in series [2] (setting [8]); 0.033 mg/mL of EYP001 in series [2] (setting [9]). Also, the pH result is “(pH = 4.9)” in series [4] (pH given with the soluble fraction, after 2 h); “(pH = 5.0)” in series [4] (pH printed with the soluble fraction, after 0.5 h, listed as EYP001 L-Lysine salt (Form VI)); “(pH = 4.9)” in series [4] (pH printed with the soluble fraction, after 1 h, listed as EYP001 L-Lysine salt (Form VI)); “(pH = 4.9)” in series [4] (pH printed with the soluble fraction, after 24 h, listed as EYP001 L-Lysine salt (Form VI)). For the same compound, in series [5] (setting [10]), the “Mean AUClast” value came to 4612.3 ng·h/mL. Further, the “Mean Cmax” value in series [5] (setting [10]) amounted to 2399.2 ng/mL. Moreover, the “% increase/EYP001 (AUClast)” value in series [5] (setting [11]) is “+36.6%”. Moreover, the “% increase/EYP001 (Cmax)” value in series [5] (setting [11]) is given as “+66.1%”. Besides, the “C max compared to EYP001 free acid” value in series [5] (rat) is listed as “higher C max”. The “exposure (AUC0-24) compared to EYP001 free acid” value in series [5] (rat) is on record as “superior exposure”. The “variability of the C max (CV %) compared to EYP001 free acid” value in series [5] (rat) is reported as “strongly reduced”. Moreover, the “variability of the exposure (CV %) compared to EYP001 free acid” value in series [5] (rat) is “strongly reduced”. Moreover, the “mass loss during preliminary drying phase” value in series [6] (25° C./0% RH before sorption, listed as EYP001 L-lysine salt (Form VI)) is “no significant mass loss”. Further, in series [6] (25° C./60% RH, listed as EYP001 L-lysine salt form VI), the “water uptake (DVS)” value was found to be 0.07%. Moreover, the “water uptake upon sorption (DVS)” value in series [6] (listed as EYP001 L-lysine salt (Form VI)) and in series [6] (setting [12]) was 0.4% throughout. Moreover, in series [6] (25° C., listed as EYP001 L-lysine salt (Form VI)), the maximum hysteresis sorption/desorption is 0.15%. Besides, the “hygroscopicity (DVS)” value in series [6] (setting [12]) and in series [6] (listed as EYP001 L-lysine salt form VI) was “non-hygroscopic” throughout.
Take `CNCC(O)C(O)C(O)C(O)CO.O=C(O)c1cc2c(Cl)c(N3CCN(S(=O)(=O)c4c(Cl)cccc4Cl)CC3)ccc2o1` [EYP001 Meglumine salt, reference compound]: in series [7], the “Mean AUC0-24” value was found to be 33076 ng·h/mL and the “Mean Cmax” value is 5372 ng/mL.
Turning to `C1COCCN1.O=C(O)c1cc2c(Cl)c(N3CCN(S(=O)(=O)c4c(Cl)cccc4Cl)CC3)ccc2o1` [EYP001 Morpholine salt, reference compound], in series [1], the Soluble fraction is listed as 0.22 mg/mL of EYP001 and the pH is listed as 6.5.
Take `O=C([O-])c1cc2c(Cl)c(N3CCN(S(=O)(=O)c4c(Cl)cccc4Cl)CC3)ccc2o1.[K+]` [EYP001 Potassium salt, reference compound]: the Soluble fraction in series [4] (after 0.5 h) is 0.35 mg/mL of EYP001; in series [4] (after 1 h), 0.38 mg/mL of EYP001. Moreover, the pH entry was “(pH = 5.0)” in series [4] (pH given with the soluble fraction, after 0.5 h) and “(pH = 5.0)” in series [4] (pH given with the soluble fraction, after 1 h).
